By EC50 is commonly meant the concentration giving half of the maximal effect.

Several values for one entry are separate records, joined by “and”; a condition that tells them apart may be missing. Equal entries are not always repeated.

The text below walks through data of patent US20120028917A1, “Use Of N-(4-((3-(2-Amino-4-Pyrimidinyl)-2-Pyridinyl)Oxy)Phenyl)-4-(4-Methyl-2-Thienyl)-1-Phthalazinamine In The Treatment Of Antimitotic Agent Resistant Cancer” (Amgen Inc., priority 2009, published 2012).

The test system of one experiment is MES-SA Dx5. The experiment is described as follows: p-Histone H3 assay (ArrayScan VTi). It is filed as cell-based. Particulars: Homo sapiens, 24 h; MES-SA Dx5, Uterine, Doxorubicin-selected, P-gp overexpressing. On the procedure: (§1) MES-SA Dx5 and MES-SA cells were plated at a density of 10,000 cells/well onto 96-well plate in complete media and cultured for 24 hours. […] Cells were washed and fixed by adding 100 μL of 2× formaldehyde fixation buffer for 10 minutes and room temperature. […] Cells were immunostained with p-histone H3 antibody (5 μg/mL) and incubated at room temperature for 2 hours. Cells were washed in 100 μL of wash buffer. Next, cells were incubated with a goat anti-rabbit alexa-488 conjugated antibody (1.5 μg/mL) in wash buffer supplemented with Hoechest DNA dye (1 μg/mL) and incubated at room temperature in the dark for 30 minutes. Cells were washed twice with 100 μL of wash buffer. The 96-well plates were analyzed on an ArrayScan VTi (Cellomics) using a bioapplication algorithm (TargetActivation.V2). […] Cells were then fixed and stained with p-histone H3 antibody and counterstained with a DNA dye (Hoechest). Imaging-based analysis (ArrayScan VTi) was performed to measure the percentage of p-histone H3 positive cells. The dose-response curves represent either AMG 900 or taxol concentrations plotted against p-Histone H3 positive cells as a percentage of DMSO-treated control (POC). The EC50 values were calculated by 4-parameter fit model.

Another experiment deals with MES-SA. As to the kind of experiment: p-Histone H3 assay (ArrayScan VTi). The note with it: Homo sapiens, 24 h, Uterine, Parent line. The format is cell-based. Here is the method:
as §1

The next experiment deals with MDA-MB-231-Taxol-r. The experiment is described as follows: Cell cycle DNA content assay (flow cytometry). It is filed as cell-based. Particulars: Homo sapiens, 24 h, Breast, Paclitaxel-selected, read-out: EC50 @ 24 hours, Sub G1. Here is the method:
(§2) MDA-MB-231(F11)-luc parent and taxol-resistant cells were seeded at a density of 250,000 cells/well in a 12-well plate in 1 mL of in the appropriate media, in duplicates. The next day cells were treated with AMG 900 or taxol over a 10-point concentration range with a final DMSO concentration of 0.1% in taxol-free media. After 24 hours, cells were harvested with 1× trypsin-EDTA and transferred to PCR tubes. Cells were centrifuged at 2000 rpm for 4 minutes and the supernatant was aspirated. Cells were fixed in 200 μL of ice cold 90% methanol and stored at −20° C. for at least 24 hours. Fixed cells were centrifuged at 2000 rpm for 4 minutes to remove 90% methanol. Cells were washed with wash buffer and stained with 200 μL of propidium iodide (PI) for 30 minutes at 4° C. in the dark. An additional 400 μL of PI was added before data acquisition. Data was acquired and analyzed by flow cytometry (LSRII). A threshold gate was applied according to +4N (same as ≧4N) DNA content based on DMSO control and low/high drug-treated groups. The data was represented as percentage of control for +4N DNA content positive populations. The +4N DNA content cellular EC50 values were assigned using 4-parameter equation. […] Flow cytometric-based cell cycle analysis was performed to measure the percentage of ≧4N DNA content or SubG1 DNA content positive cells. The dose-response curves for AMG 900 represent the drug concentration plotted against the percentage of ≧4N DNA content positive cells. The dose-response curves for taxol represent the drug concentration plotted against the percentage of SubG1 DNA content positive cells. The EC50 values were calculated by 4-parameter fit model.

For another experiment, the system named is MDA-MB-231. As to the kind of experiment: Cell cycle DNA content assay (flow cytometry). It is filed as cell-based. The note with it: Homo sapiens, 24 h; MDA-MB-231, Breast, Parent line; read-out: EC50 @ 24 hours, Sub G1. Here is the method: as §2
A general note: A flow cytometer gives signals particle by particle.

A further experiment deals with NCI-H460-Taxol-r. As to the kind of experiment: Cell cycle DNA content assay (flow cytometry). The format is cell-based. Particulars: Homo sapiens, 24 h, Lung, Paclitaxel-selected, read-out: EC50 @ 24 hours, Sub G1. Here is the method: (§3) NCI-H460 parental and NCI-H460 taxol-resistant cells were seeded at a density of 500,000 cells/well in a 6-well plate in 2 mL of appropriate complete media. The next day cells were treated with AMG 900 or taxol over a 6-point concentration range with a final DMSO concentration of 0.05% in media. After 24 hours, cells were pulsed with BrdU (1:100 dilution) and harvested. Cells were centrifuged at 1600 rpm for 4 minutes and the supernatant was aspirated. Cells were washed in 1× PBS and fixed in 900 μL of ice cold 90% methanol and stored at −20° C. Fixed cells were centrifuged at 2000 rpm for 4 minutes to remove 90% methanol. Cells were washed with 200 μL of wash buffer and stained with 200 μL of propidium iodide (PI) overnight at 4° C. in the dark. Data was acquired and analyzed by flow cytomety (LSRII). A threshold gate was applied according to +4N (same as ≧4N) DNA content and SubG1 positive populations based on DMSO-treated control and low/high drug-treated groups. The data was represented as a percentage of +4N DNA and SubG1 positive subpopulations. The +4N (same as ≧4N) DNA content or SubG1 cellular EC50 values were calculated using a 4-parameter equation. Lung tumor cell lines were treated with control (DMSO), AMG 900 or taxol over a 6-point dose range for 24 hours. Flow cytometric-based cell cycle analysis was performed to measure the percentage of ≧4N DNA content or SubG1 DNA content positive cells. The dose-response curves for AMG 900 represent the drug concentration plotted against the percentage of ≧4N DNA content positive cells. The dose-response curves for taxol represent the drug concentration plotted against the percentage of SubG1 DNA content positive cells. The EC50 values were calculated by 4-parameter fit model.

For the next experiment, the system named is NCI-H460. The experiment is described as follows: Cell cycle DNA content assay (flow cytometry). Particulars: Homo sapiens, 24 h; NCI-H460, Lung, Parent line; read-out: EC50 @ 24 hours, Sub G1. The format is cell-based. On the procedure:
as §3

Experiment [1] relates to NCI-H460-taxol resistant tumor xenografts. As to the kind of experiment: Growth of established NCI-H460-taxol resistant xenografts (Example 4). It is filed as in vivo, athymic nude mice. The note with it: 12.5mpk IP QD 5 days/week × 2 wks. Here is the method:
To investigate whether AMG 900-induced suppression of aurora kinase activity inhibits cell proliferation, the antitumor efficacy of AMG 900 was evaluated in vivo against NCI-H460-taxol resistant tumor xenografts in athymic nude mice. Mice were dosed PO with AMG 900 (BID) either intermittently or continuously. Mice were dosed IP with paclitaxel (taxol) 5 days/week. An internal Amgen compound was used as a positive control in this study (data not shown). Tumors were measured twice per week. Treatment began on day 12 when the tumors were established. All groups were provided nutritional supplements on a daily basis throughout the study to maintain body weight. AMG 900 (free base) was formulated into suspension to concentrations of 1.5 and 0.3 mg/mL. […] The duration of the dosing phase for AMG 900 was three weeks, and two weeks for the taxol group. The tumors were measured with a digital caliper and the mice were weighed twice per week. Tumor volumes were calculated as follows: […] Tumor inhibition was calculated as follows: […] FIG. 5 illustrates the effects of AMG 900 and Taxol treatment on the growth of established H460-taxol resistant tumors. […] Tumors were measured twice per week. Treatment began 12 days after tumor implantation (arrow) when tumors were approximately 170 mm^3. Mice were dosed PO or IP once or twice daily for 3 weeks. Data represent mean ±SE for each group. *P values (not shown) correspond to statistical difference between groups treated with vehicle and AMG 900 or Taxol analyzed with repeated measure Sheffe's ANOVA over time using […]. The scheduled days listed in the legend represent days/ week. All groups were provided nutritional supplements throughout the study.

The next experiment has as its system HCT116 AZD1152-resistant. The experiment is described as follows: Colony formation assay (FIG. 6-B). The note with it: both HCT116 cell lines (parental and AZD1152-resistant) compared. The format is cell-based, human. On the procedure: Tumor cell lines were obtained from the American Type Culture Collection (ATCC) unless otherwise specified. The MDA-MB-231-PTX and NCI-H460-PTX cell lines were established by growing the cells in the presence of increasing concentrations of paclitaxel over a period of 6 months. The HCT116 AZD1152-resistant cell line was established by growing the cells in the presence of AZD1152 at 80 nmol/L. Tumor cells were treated with AMG 900, paclitaxel or AZD1152 (0.5, 5, 50 nmol/L) for 48 hours, washed twice with complete media, and cells were re-plated at a density of 5000 cells per well in drug-free complete media. Cells were grown until the DMSO control wells were confluent. Cells were stained with crystal violet dye (Sigma), washed with distilled water, and imaged using a digital scanner (Hewlett-Packard). Colony formation assay was performed with HCT116 cell lines (parental and AZD1152-resistant). Cells were treated with DMSO, AMG 900, AZD1152, or paclitaxel at the indicated concentrations for 48 hours and re-plated in complete media lacking the inhibitor. After the DMSO-treated cells reached confluence, the cells were stained with crystal violet and imaged (duplicate wells).

In the case of `CC(=O)O[C@H]1C(=O)[C@@]2(C)[C@H]([C@H](OC(=O)c3ccccc3)[C@]3(O)C[C@H](OC(=O)[C@H](O)[C@@H](NC(=O)c4ccccc4)c4ccccc4)C(C)=C1C3(C)C)[C@]1(OC(C)=O)CO[C@@H]1C[C@@H]2O` [Paclitaxel, reference compound], the EC50 in the experiment on MES-SA Dx5 is more than 1250 nM; in the experiment on MES-SA, 10 nM; in the experiment with MDA-MB-231-Taxol-r it was 95 nM; in the experiment on MDA-MB-231, 2 nM; in the experiment with NCI-H460-Taxol-r, more than 100 nM; in the experiment on NCI-H460 it was 10 nM. For the same compound, in experiment [1], the “Tumor volume, Mean” value amounted to 1383 mm^3. Moreover, the “Tumor volume, Median” value in experiment [1] came to 1072.0 mm^3. The “% Inhibition (tumor growth)” value in experiment [1] (listed as Taxol) is 20% and 19.7%. In addition, the “sensitivity in colony formation” value in the experiment with HCT116 AZD1152-resistant was “equally sensitive”.
